In general, melting point refers to the temperature, or range, at which the solid turns liquid.

In patent US9067892B2, “Spiroheterocyclic N-oxypiperidines as pesticides” (Syngenta Crop Protection, Inc., priority 2008, dated 2015) one finds melting point and pest or weed control data, which are given here for 46 compounds.

Series [1] has as its system Tetranychus urticae (two-spotted spider mite). The series is described as follows: Example B4: Tetranychus urticae, mixed population, feeding/residual contact activity, preventive. In kind it is in vivo. The following applies: foliar, 192 h, bean leaf discs sprayed, 8 days, egg, larval and adult mortality. From the text:
Activity Against Tetranychus urticae (Two-Spotted Spider Mite) (Mixed Population, Feeding/Residual Contact Activity, Preventive) Bean leaf discs on agar in 24-well microtiter plates are sprayed with test solutions. […] 8 days later, discs are checked for egg mortality, larval mortality, and adult mortality.

Series [2] concerns Nilaparvata lugens (brown rice planthopper). The series can be described thus: Example B8: Nilaparvata lugens, larvicide, feeding/contact. It is filed as in vivo. The following applies: rice seedlings sprayed, N3 nymphs, 6-12 days after treatment. As to the method: Activity Against Nilaparvata lugens (Brown Rice Planthopper) (Larvicide, Feeding/Contact) Rice seedlings are treated with the diluted test solutions in a spray chamber. After drying, they are infested with 20 N3 nymphs (2 replicates). 6-12 days after the treatment samples are checked for mortality, growth regulation, and effects on the F1 generation.

The subject of series [3] is Aphis craccivora (cowpea aphid). The series can be described thus: Example B11: translaminar activity against Aphis craccivora. It is filed as in vivo. The settings on record: 120 h, French bean leaves, aphids on lower side, upper side painted, 5 days, mortality. The procedure:
Translaminar Activity Against Aphis craccivora (Cowpea Aphid) French bean leaves (Phaseolus vulgaris) are infested with about 20 mixed age individuals on the lower leaf side using clip cages. 1 day after the infestation, the upper side of the leaves is treated with the test solution by painting. 5 days later, samples are checked for mortality.

In series [4] the test system is Myzus persicae (green peach aphid). The series can be described thus: Example B16: Myzus persicae on pepper plants, feeding/residual contact activity. It is filed as in vivo. The settings on record: 144 h, infested pepper plants sprayed, 6 days after treatment, mortality, read-out: activity against Myzus persicae.
For series [5] the test system is unchanged. The series is described as follows: Example B1: Myzus persicae, mixed population, feeding/residual contact activity, preventive. The settings on record: foliar, 144 h, read-out: activity.
Series [6] shares this test system. The series can be described thus: Example B2: Myzus persicae, mixed population, systemic/feeding activity, curative. The settings on record: 144 h, read-out: activity.
For series [7], the system named is Thrips Tabaci (onion thrips). The series can be described thus: Example B3: Thrips tabaci, mixed population, feeding/residual contact activity, preventive. In kind it is in vivo. The settings on record: foliar, 144 h, sunflower leaf discs sprayed, 6 days incubation, mortality.
For series [8], the system named is Aphis craccivora (cowpea aphid). The series is described as follows: Example B10: Aphis craccivora, mixed population, systemic/feeding. The settings on record: 144 h, roots of infested pea seedlings in test solution, 6 days, mortality. In kind it is in vivo. From the text: 6 days later, samples are checked for mortality.
The subject of series [9] is Myzus persicae (green peach aphid). The series can be described thus: Example B13: drench activity against Myzus persicae. It is filed as in vivo. The following applies: 168 h, pea seedlings in field soil, 7 days after infestation, mortality. The procedure:
Drench Activity Against Myzus persicae (Green Peach Aphid) Pea seedlings cultivated in field soil are treated as drench application and infested with a mixed population of M. persicae. 7 days after infestation, samples are checked for mortality.

`CCOC(=O)OC1=C(c2cc(C)ccc2C)C(=O)N(C)C12CCN(OC)CC2` [P1.1]: the melting point is 96 to 110 °C.
In the case of `CCOC(=O)OC1=C(c2c(C)cc(C)cc2C)C(=O)N(CC2CC2)C12CCN(OC)CC2` [P1.5], the pest or weed control at 400 ppm in series [1], in series [2] and in series [3] was greater than 80% throughout. The pest or weed control at 200 ppm in [4] was no less than 80%.
In the case of `CCOC(=O)OC1=C(c2c(C)cc(C)cc2Cl)C(=O)N(C)C12CCN(OC)CC2` [P1.6], the pest or weed control at 400 ppm in series [1] and in [5] was greater than 80% throughout.
In the case of `CCOC(=O)OC1=C(c2c(C)cc(C)cc2C)C(=O)N(C2CC2)C12CCN(OC)CC2` [P1.7], the pest or weed control at 400 ppm in series [5] was greater than 80%.
In turn, `CCOC(=O)OC1=C(c2c(C)cc(C)cc2C)C(=O)N(CC)C12CCN(OC)CC2` [P1.8] displayed a melting point of 101 to 103 °C.
In [1], `CCOC(=O)OC1=C(c2c(Cl)ccc(C)c2F)C(=O)N(C)C12CCN(OC)CC2` [P1.9] returned a pest or weed control at 400 ppm greater than 80%.
For `CCOC(=O)OC1=C(c2c(F)ccc(C)c2Cl)C(=O)N(C)C12CCN(OC)CC2` [P1.10], the pest or weed control at 400 ppm in series [6] is greater than 80%.
Turning to `CCOC(=O)OC1=C(c2c(C)cc(Br)cc2C)C(=O)N(C)C12CCN(OC)CC2` [P1.12], the pest or weed control at 400 ppm in series [1] and in series [5] was greater than 80% in each case. Further, the pest or weed control at 200 ppm in series [4] was no less than 80%.
Consider `CCOC(=O)OC1=C(c2c(C)cccc2C)C(=O)N(C)C12CCN(OC)CC2` [P1.13], for which the pest or weed control at 200 ppm in series [4] is no less than 80%. Besides, the pest or weed control at 400 ppm in series [5] is greater than 80%.
Turning to `CCOC(=O)OC1=C(c2c(C)cc(C)cc2C)C(=O)N(CCCOC)C12CCN(OC)CC2` [P1.16], the pest or weed control at 400 ppm in series [1] and in [5] was greater than 80% throughout. Moreover, the pest or weed control at 200 ppm in series [4] was no less than 80%.
With `CCOC(=O)OC1=C(c2c(C)cc(C)cc2C)C(=O)N(CCOCOC)C12CCN(OC)CC2` [P1.17], the pest or weed control at 400 ppm in series [6] and in series [5] was greater than 80% throughout.
`CCOC(=O)OC1=C(c2cc(C)c(C)cc2Br)C(=O)N(C)C12CCN(OC)CC2` [P1.20] yielded a melting point of 158 to 159 °C.
In turn, `CCOC(=O)OC1=C(c2c(C)ccc(C)c2C)C(=O)N(C)C12CCN(OC)CC2` [P1.21] came in with a pest or weed control at 400 ppm in series [1] greater than 80%. In addition, the pest or weed control at 200 ppm in series [4] was no less than 80%.
With `CCOC(=O)OC1=C(c2cc(C)c(C)cc2Cl)C(=O)N(C)C12CCN(OC)CC2` [P1.22], the melting point lay within 149 to 150 °C.
On to `CCOC(=O)OC1=C(c2ccc(C)cc2C)C(=O)N(C)C12CCN(OC)CC2` [P1.25], for which the pest or weed control at 400 ppm in series [1] and in series [5] was greater than 80% in each case. In series [4], the pest or weed control at 200 ppm is no less than 80%.
As to `CCOC(=O)OC1=C(c2c(C)cc(C)cc2C)C(=O)N(CC2CCCO2)C12CCN(OC)CC2` (stereo not drawn) [P1.26], in series [1], the pest or weed control at 400 ppm is greater than 80%.
Regarding `CCOC(=O)OC1=C(c2c(C)ccc(Cl)c2C)C(=O)N(C)C12CCN(OC)CC2` [P1.27], the pest or weed control at 200 ppm in series [4] is no less than 80%. Further, the pest or weed control at 400 ppm in series [5] was greater than 80%.
As for `CCOC(=O)OC1=C(c2cc(C)c(Cl)cc2C)C(=O)N(C)C12CCN(OC)CC2` [P1.28], the pest or weed control at 400 ppm in series [7] is greater than 80%.
Consider `CCOC(=O)OC1=C(c2c(C)cc(Cl)cc2C)C(=O)N(C)C12CCN(OC)CC2` [P1.29], for which, in series [4], the pest or weed control at 200 ppm is no less than 80%. Besides, in series [5], the pest or weed control at 400 ppm was greater than 80%.
`CON1CCC2(CC1)C(O)=C(c1cc(C)ccc1C)C(=O)N2C` [P2.1] had a melting point of 121 to 123 °C.
As for `CON1CCC2(CC1)C(O)=C(c1ccc(Cl)cc1Cl)C(=O)N2CC(F)F` [P2.4], the pest or weed control at 400 ppm in [5] is greater than 80%.
Take `COCCN1C(=O)C(c2c(C)cc(C)cc2C)=C(O)C12CCN(OC)CC2` [P2.7]: the pest or weed control at 400 ppm in series [2], in [8], in series [3] and in series [5] was greater than 80% in each case. The pest or weed control at 25 ppm in series [9] was greater than 80%.
The compound `CON1CCC2(CC1)C(O)=C(c1c(C)cc(C)cc1C)C(=O)N2CC1CC1` [P2.8, 1-Cyclopropylmethyl-4-hydroxy-8-methoxy-3-(2,4,6-trimethyl-phenyl)-1,8-diaza-spiro[4.5]dec-3-en-2-one] gave a melting point of 223 to 225 °C.
`CON1CCC2(CC1)C(O)=C(c1c(C)cc(C)cc1Cl)C(=O)N2C` [P2.9]: the pest or weed control at 400 ppm in [1], in series [6] and in series [5] was greater than 80% each time.
Consider `CON1CCC2(CC1)C(O)=C(c1c(C)cc(C)cc1C)C(=O)N2C1CC1` [P2.10], for which the pest or weed control at 400 ppm in series [5] is greater than 80%.
`CCN1C(=O)C(c2c(C)cc(C)cc2C)=C(O)C12CCN(OC)CC2` [P2.11] showed a melting point of 218 to 221 °C.
For `CON1CCC2(CC1)C(O)=C(c1c(F)ccc(C)c1Cl)C(=O)N2C` [P2.13], the pest or weed control at 400 ppm in [1] was greater than 80%.
On the same count and under the same terms, as for `CON1CCC2(CC1)C(O)=C(c1cc(C)c(Cl)cc1C)C(=O)N2C` [P2.15], the figure is greater than 80%.
For `CON1CCC2(CC1)C(O)=C(c1c(C)cc(Br)cc1C)C(=O)N2C` [P2.16], the pest or weed control at 200 ppm in [4] was no less than 80%. Further, the pest or weed control at 400 ppm in series [6] and in [5] was greater than 80% in each case.
Consider `CON1CCC2(CC1)C(O)=C(c1c(C)cccc1C)C(=O)N2C` [P2.17], for which the pest or weed control at 200 ppm in series [4] was no less than 80%. For the same compound, the pest or weed control at 400 ppm in [5] is greater than 80%.
With `COCCCN1C(=O)C(c2c(C)cc(C)cc2C)=C(O)C12CCN(OC)CC2` [P2.20], the pest or weed control at 400 ppm in series [7], in series [1], in series [6] and in series [5] was greater than 80% throughout.
In the case of `COCOCCN1C(=O)C(c2c(C)cc(C)cc2C)=C(O)C12CCN(OC)CC2` [P2.21], the pest or weed control at 400 ppm in [1], in series [6] and in series [5] was greater than 80% in each case. In series [4], the pest or weed control at 200 ppm was no less than 80%.
Consider `CON1CCC2(CC1)C(O)=C(c1cc(C)c(C)cc1Br)C(=O)N2C` [P2.23], for which the melting point lay in the range of 191 to 193 °C.
`CON1CCC2(CC1)C(O)=C(c1c(C)ccc(C)c1C)C(=O)N2C` [P2.24]: in [4], the pest or weed control at 200 ppm was no less than 80%.
`CON1CCC2(CC1)C(O)=C(c1cc(C)c(C)cc1C)C(=O)N2C` [P2.25] came in with a melting point of 183 to 186 °C.
As to `CON1CCC2(CC1)C(O)=C(c1cc(C)c(C)cc1Cl)C(=O)N2C` [P2.26, 3-(2-Chloro-4,5-dimethyl-phenyl)-4-hydroxy-8-methoxy-1-methyl-1,8-diaza-spiro[4.5]dec-3-en-2-one], the melting point was in the range of 191 to 192 °C.
Consider `CON1CCC2(CC1)C(O)=C(c1c(C)ccc(Cl)c1C)C(=O)N2C` [P2.27], for which the pest or weed control at 200 ppm in series [4] is no less than 80%.
The same measure, in the same setting: then `CON1CCC2(CC1)C(O)=C(c1c(C)cc(C)cc1C)C(=O)N2CC1(C)COC1` [P2.30], with no less than 80%.
Turning to `CON1CCC2(CC1)C(O)=C(c1c(C)cc(C)c(Cl)c1C)C(=O)N2C` [P2.31], the pest or weed control at 400 ppm in [1], in series [6] and in [5] was greater than 80% each time. Also, the pest or weed control at 200 ppm in [4] is no less than 80%.
`CON1CCC2(CC1)C(O)=C(c1c(C)cc(C)cc1C)C(=O)N2CC1CCCO1` (stereo not drawn) [P2.32] showed a pest or weed control at 400 ppm in series [1] greater than 80%.
As to `CON1CCC2(CC1)C(O)=C(c1c(C)cc(Cl)cc1C)C(=O)N2C` [P2.33], the pest or weed control at 200 ppm in series [4] was no less than 80%. In series [5], the pest or weed control at 400 ppm was greater than 80%.
As for `CON1CCC2(CC1)C(O)=C(c1c(C)cc(Br)cc1Cl)C(=O)N2C` [P2.34], the pest or weed control at 200 ppm in series [4] was no less than 80%.
In the case of `COc1cc(COC2=C(c3cc(C)ccc3C)C(=O)NC23CCN(OC)CC3)cc(OC)c1OC` [P3.1], the pest or weed control at 400 ppm in [7] is greater than 80%.
In the case of `COc1ccc(COC2=C(c3cc(C)ccc3C)C(=O)NC23CCN(OC)CC3)cc1` [P3.2], the pest or weed control at 400 ppm in series [7] was greater than 80%.
In the case of `CON1CCC2(CC1)NC(=O)C(c1c(C)cc(C)cc1C)=C2OCc1ccccc1` [P3.4, 4-benzyloxy-8-methoxy-3-(2,4,6-trimethyl-phenyl)-1,8-diaza-spiro[4.5]dec-3-en-2-one], the pest or weed control at 400 ppm in series [7] and in [1] was greater than 80% each time.
`CON1CCC2(CC1)C(OCc1ccccc1)=C(c1c(C)cc(C)cc1C)C(=O)N2CC1CC1` [P3.8, 4-benzyloxy-1-cyclopropylmethyl-8-methoxy-3-(2,4,6-trimethyl-phenyl)-1,8-diaza-spiro[4.5]dec-3-en-2-one] showed a pest or weed control at 400 ppm in series [1] greater than 80%.
